Assay results taken from patent US10717716B2, “1,3,4-oxadiazole derivative compounds as histone deacetylase 6 inhibitor, and the pharmaceutical composition comprising the same” (Chong Kun Dang Pharmaceutical Corp., priority 2015, dated 2020).

Target: T1, human recombinant HDAC6 (Homo sapiens, UniProt Q9UBN7)
T1 construct: purchased Calbiochem 382180
T1 sequence (Q9UBN7 1-1215): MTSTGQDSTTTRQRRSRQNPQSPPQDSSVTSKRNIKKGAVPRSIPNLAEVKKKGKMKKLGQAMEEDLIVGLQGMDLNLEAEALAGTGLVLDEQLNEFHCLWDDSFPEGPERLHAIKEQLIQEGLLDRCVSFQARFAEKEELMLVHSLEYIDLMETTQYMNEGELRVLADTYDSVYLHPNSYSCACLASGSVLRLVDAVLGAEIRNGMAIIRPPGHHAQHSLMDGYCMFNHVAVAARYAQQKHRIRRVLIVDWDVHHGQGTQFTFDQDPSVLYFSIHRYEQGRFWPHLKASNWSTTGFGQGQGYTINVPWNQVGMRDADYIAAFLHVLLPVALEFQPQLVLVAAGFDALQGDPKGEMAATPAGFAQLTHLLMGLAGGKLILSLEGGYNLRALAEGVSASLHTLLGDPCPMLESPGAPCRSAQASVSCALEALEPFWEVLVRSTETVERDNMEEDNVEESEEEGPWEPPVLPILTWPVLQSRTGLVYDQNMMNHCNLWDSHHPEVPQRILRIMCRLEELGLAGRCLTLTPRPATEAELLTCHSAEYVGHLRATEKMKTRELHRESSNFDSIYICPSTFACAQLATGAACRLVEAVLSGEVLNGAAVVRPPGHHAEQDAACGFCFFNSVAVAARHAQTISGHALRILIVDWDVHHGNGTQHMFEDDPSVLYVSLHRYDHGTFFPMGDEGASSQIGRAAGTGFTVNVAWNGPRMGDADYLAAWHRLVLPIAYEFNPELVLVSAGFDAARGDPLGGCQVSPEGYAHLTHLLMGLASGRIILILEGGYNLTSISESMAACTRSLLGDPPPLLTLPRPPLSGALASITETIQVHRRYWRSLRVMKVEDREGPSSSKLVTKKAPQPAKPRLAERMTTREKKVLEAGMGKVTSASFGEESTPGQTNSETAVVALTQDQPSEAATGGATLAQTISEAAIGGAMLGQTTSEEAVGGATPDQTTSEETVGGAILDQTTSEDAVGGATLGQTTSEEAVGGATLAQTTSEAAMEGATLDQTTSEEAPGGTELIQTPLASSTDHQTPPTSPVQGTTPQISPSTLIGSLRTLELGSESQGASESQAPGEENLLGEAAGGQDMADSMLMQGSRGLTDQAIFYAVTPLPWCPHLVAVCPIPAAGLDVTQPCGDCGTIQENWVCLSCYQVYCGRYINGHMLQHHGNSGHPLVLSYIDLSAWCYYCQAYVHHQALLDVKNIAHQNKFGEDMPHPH
Assay: HDAC6 enzyme activity inhibition assay (HDAC Fluorimetric Drug Discovery Kit)
Assay type: biochemical
Settings: for HDAC6 selectivity (fold): HDAC6 over HDAC1; for IC50: human recombinant HDAC6, same protocol as HDAC1, read-out: HDAC6
Method in brief: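 Fluorimetric deacetylase assay: 5-fold serial compound dilutions, 0.3 μg recombinant human enzyme (HDAC1 or HDAC6, same protocol), 10 μM Fluor de Lys-SIRT1 substrate, 60 min at 30 °C. Signal developed 30 min, measured at 360/460 nm; IC50 values derived.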

HDAC6 selectivity (fold)	IC50 [nM]	Structure (SMILES)
294	34	O=C(N1CC2(CCNCC2)C1)N(Cc1ccc(-c2nnc(C(F)F)o2)cc1F)c1ccccc1 [Compound 21497, N-(4-(5-(difluoromethyl)-1,3,4-oxadiazol-2-yl)-2-fluorobenzyl)-N-phenyl-2,7-diazaspiro[3.5]nonane-2-carboxamide]
714	14	CN1CCC2(CC1)CN(C(=O)N(Cc1ccc(-c3nnc(C(F)F)o3)cc1F)c1ccccc1)C2 [Compound 21498, N-(4-(5-(difluoromethyl)-1,3,4-oxadiazol-2-yl)-2-fluorobenzyl)-7-methyl-N-phenyl-2,7-diazaspiro[3.5]nonane-2-carboxamide]
588	17	CCN1CCC2(CC1)CN(C(=O)N(Cc1ccc(-c3nnc(C(F)F)o3)cc1F)c1ccccc1)C2 [Compound 21499, N-(4-(5-(difluoromethyl)-1,3,4-oxadiazol-2-yl)-2-fluorobenzyl)-7-ethyl-N-phenyl-2,7-diazaspiro[3.5]nonane-2-carboxamide]
400	25	CC(=O)N1CCC2(CC1)CN(C(=O)N(Cc1ccc(-c3nnc(C(F)F)o3)cc1F)c1ccccc1)C2 [Compound 21500, 7-Acetyl-N-(4-(5-(difluoromethyl)-1,3,4-oxadiazol-2-yl)-2-fluorobenzyl)-N-phenyl-2,7-diazaspiro[3.5]nonane-2-carboxamide]
357	28	CS(=O)(=O)N1CCC2(CC1)CN(C(=O)N(Cc1ccc(-c3nnc(C(F)F)o3)cc1F)c1ccccc1)C2 [Compound 21501, N-(4-(5-(difluoromethyl)-1,3,4-oxadiazol-2-yl)-2-fluorobenzyl)-7-(methylsulfonyl)-N-phenyl-2,7-diazaspiro[3.5]nonane-2-carboxamide]
36	279	O=C(N1CCS(=O)(=O)CC1)N(Cc1ccc(-c2nnc(C(F)F)o2)cc1)c1cccc(-c2ccccc2)c1 [Compound 21502, N-([1,1′-biphenyl]-3-yl)-N-(4-(5-(difluoromethyl)-1,3,4-oxadiazol-2-yl)benzyl)thiomorpholine-4-carboxamide 1,1-dioxide]
30	332	CCc1ccc(N(Cc2ccc(-c3nnc(C(F)(F)F)o3)cc2F)C(=O)N2CCS(=O)(=O)CC2)cc1 [Compound 21511, N-(4-ethylphenyl)-N-(2-fluoro-4-(5-(trifluoromethyl)-1,3,4-oxadiazol-2-yl)benzyl)thiomorpholine-4-carboxamide 1,1-dioxide]
108	93	CCc1ccc(N(Cc2ccc(-c3nnc(C(F)F)o3)cc2F)C(=O)N2CCS(=O)(=O)CC2)cc1 [Compound 21512, N-(4-(5-(difluoromethyl)-1,3,4-oxadiazol-2-yl)-2-fluorobenzyl)-N-(4-ethylphenyl)thiomorpholine-4-carboxamide 1,1-dioxide]

The next lines start with the compound.

Structure (SMILES)	HDAC6 selectivity (fold)	IC50 [nM]
COc1cccc(N(Cc2ccc(-c3nnc(C(F)(F)F)o3)cc2F)C(=O)N2CCS(=O)(=O)CC2)c1 [Compound 21481, N-(2-fluoro-4-(5-(trifluoromethyl)-1,3,4-oxadiazol-2-yl)benzyl)-N-(3-methoxyphenyl)thiomorpholine-4-carboxamide 1,1-dioxide]	172	58
COc1cccc(N(Cc2ccc(-c3nnc(C(F)F)o3)cc2F)C(=O)N2CCS(=O)(=O)CC2)c1 [Compound 21482, N-(4-(5-(difluoromethyl)-1,3,4-oxadiazol-2-yl)-2-fluorobenzyl)-N-(3-methoxyphenyl)thiomorpholine-4-carboxamide 1,1-dioxide]	323	31
Cc1cccc(N(Cc2ccc(-c3nnc(C(F)(F)F)o3)cc2F)C(=O)N2CCS(=O)(=O)CC2)c1 [Compound 21483, N-(2-fluoro-4-(5-(trifluoromethyl)-1,3,4-oxadiazol-2-yl)benzyl)-N-(m-tolyl)thiomorpholine-4-carboxamide 1,1-dioxide]	141	71
Cc1cccc(N(Cc2ccc(-c3nnc(C(F)F)o3)cc2F)C(=O)N2CCS(=O)(=O)CC2)c1 [Compound 21484, N-(4-(5-(difluoromethyl)-1,3,4-oxadiazol-2-yl)-2-fluorobenzyl)-N-(m-tolyl)thiomorpholine-4-carboxamide 1,1-dioxide]	476	21
O=C(N1CCS(=O)(=O)CC1)N(Cc1ccc(-c2nnc(C(F)F)o2)cc1)c1ccc(-c2ccccc2)cc1 [Compound 21486, N-([1,1′-biphenyl]-4-yl)-N-(4-(5-(difluoromethyl)-1,3,4-oxadiazol-2-yl)benzyl)thiomorpholine-4-carboxamide 1,1-dioxide]	120	83
Cn1ncc2ccc(-c3ccc(N(Cc4ccc(-c5nnc(C(F)F)o5)cc4)C(=O)N4CCS(=O)(=O)CC4)cc3)cc21 [Compound 21488, N-(4-(5-(difluoromethyl)-1,3,4-oxadiazol-2-yl)benzyl)-N-(4-(1-methyl-1H-indazol-6-yl)phenyl)thiomorpholine-4-carboxamide 1,1-dioxide]	90	111
O=C(N1CCS(=O)(=O)CC1)N(Cc1ccc(-c2nnc(C(F)F)o2)cc1)c1ccc(-c2cccnc2)cc1 [Compound 21490, N-(4-(5-(difluoromethyl)-1,3,4-oxadiazol-2-yl)benzyl)-N-(4-(pyridin-3-yl)phenyl)thiomorpholine-4-carboxamide 1,1-dioxide]	270	37
O=C(N1CCS(=O)(=O)CC1)N(Cc1ccc(-c2nnc(C(F)F)o2)cc1)c1ccc(-c2ccoc2)cc1 [Compound 21492, N-(4-(5-(difluoromethyl)-1,3,4-oxadiazol-2-yl)benzyl)-N-(4-(furan-3-yl)phenyl)thiomorpholine-4-carboxamide 1,1-dioxide]	278	36
O=C(N1CCS(=O)(=O)CC1)N(Cc1ccc(-c2nnc(C(F)F)o2)cc1)c1ccc(-c2ccc3c(c2)OCO3)cc1 [Compound 21494, N-(4-(benzo[d][1,3]dioxol-5-yl)phenyl)-N-(4-(5-(difluoromethyl)-1,3,4-oxadiazol-2-yl)benzyl)thiomorpholine-4-carboxamide 1,1-dioxide]	89	112
O=C(N1CCC2(CC1)CNC2)N(Cc1ccc(-c2nnc(C(F)F)o2)cc1F)c1ccccc1 [Compound 21495, N-(4-(5-(difluoromethyl)-1,3,4-oxadiazol-2-yl)-2-fluorobenzyl)-N-phenyl-2,7-diazaspiro[3.5]nonane-7-carboxamide]	294	34
CN1CC2(CCN(C(=O)N(Cc3ccc(-c4nnc(C(F)F)o4)cc3F)c3ccccc3)CC2)C1 [Compound 21496, N-(4-(5-(difluoromethyl)-1,3,4-oxadiazol-2-yl)-2-fluorobenzyl)-2-methyl-N-phenyl-2,7-diazaspiro[3.5]nonane-7-carboxamide]	500	20
